Results taken from patent publication US6596878B2, “Methods and compositions for inhibiting cell proliferative disorders” (Yissum Research & Development Company of the Hebrew …, priority 1994, dated 2003).
Several values for one entry are separate records, joined by “and”; a condition that tells them apart may be missing. Equal entries are not always repeated. Where two headings read alike, the source gives them in different places.

Key:
Type in all cases: cell-based
[1] = biological target: T1, chimeric receptor containing the EGFR extracellular domain and the HER2 intracellular kinase domain (Homo sapiens, UniProt P04626); experiment: EGFR-HER2 chimeric receptor whole cell kinase assay (E/HER2-3T3); details: Table VI, cellular kinase assay
T1 construct: P00533 (Epidermal growth factor receptor)
Description: (§1) This example illustrates the ability of the exemplary compounds to inhibit receptor tyrosine kinases, such as HER2 and/or EGFR. The following target cells were used for cellular kinaseassays: NIH3T3 clone C7 (Honegger et al., supra) engineered to over-express human EGF receptor; NIH3T3 cells engineered to over-express a chimeric receptor containing the EGFR extracellular domain and the HER2 intracellular kinase domain; the human mammary carcinoma line BT474 (ATCC HTB2) expressing HER2; and the human glioblastoma line U1242 that expresses PDGFR-β. Growth assays were carried out using human mammary epithelial SKBR3 (ATCC HTB30) cells, SKOV3 (ATCC HTB77) human ovarian cancer cell line, A431 cells, MCF7 human breast carcinoma cells, MCF7 cells overexpress the HER2 kinase (MCF7-HER2), NIH3T3 cells, and NIH3T3 cells overexpressing the HER2 kinase (3T3-HER2).
2. EGFR-HER2 Chimeric Receptor
HER2 kinase activity (EGFR-3T3) in whole cells was measured as described below:
The following protocol was used:
A. Coat ELISA plates (Corning, 96 well, Cat. #25805-96) with 05-101 antibody at 0.5 μg per well in PBS, 100 μl final volume/well, and store overnight at 4° C. Coated plates are good for up to 10 days when stored at 4° C.
B. On day of use, remove coating buffer and replace with 100 μl blocking buffer (5% Carnation Instant Non-Fat Dry Milk in PBS). Incubate the plate, shaking, at room temperature (about 23° C. to 25° C.) for 30 minutes. Just prior to use, remove blocking buffer and wash plate 4 times with TBST buffer.
A. An NIH3T3 cell line overexpressing a chimeric receptor containing the EGFR extracellular domain and extracellular HER2 kinase domain can be used for this assay.
A. Choose dishes having 80-90% confluence for the experiment. Trypsinize cells and stop reaction by adding 10% fetal bovine serum. Suspend cells in DMEM medium (10% CS DMEM medium) and centrifuge once at 1500 rpm, at room temperature for 5 minutes.
B. Resuspend cells in seeding medium (DMEM, 0.5% bovine serum), and count the cells using trypan blue. Viability above 90% is acceptable. Seed cells in DMEM medium (0.5% bovine serum) at a density of 10,000 cells per well, 100 μl per well, in a 96 well microtiter plate. Incubate seeded cells in 5% CO2 at 37° C. for about 40 hours.
A. Check seeded cells for contamination using an inverted microscope. Dilute drug stock (10 mg/ml in DMSO) 1:10 in DMEM medium, then transfer 5 μl to a test well for a final drug dilution of 1:200 and a final DMSO concentration of 1%. Control wells receive DMSO alone. Incubate in 5% CO2 at 37° C. for two hours.
A. Prepare EGF ligand: dilute stock EGF in DMEM so that upon transfer of 10 μl dilute EGF (1:12 dilution), 100 nM final concentration is attained.
B. Prepare fresh HNTG* sufficient for 100 μl per well; and place on ice.
C. After 120 minutes incubation with drug, add prepared EGF ligand to cells, 10 μl per well, to a final concentration of 100 nM. Control wells receive DMEM alone. Incubate, shaking, at room temperature, for 5 minutes.
D. Remove drug, EGF, and DMEM. Wash cells twice with PBS. Transfer HNTG* to cells, 100 μl per well. Place on ice for 5 minutes. Meanwhile, remove blocking buffer from other ELISA plate and wash with TBST as described above.
E. With a pipette tip securely fitted to a micropipettor, scrape cells from plate and homogenize cell material by repeatedly aspirating and dispensing the HNTG* lysis buffer. Transfer lysate to a coated, blocked, and washed ELISA plate. Incubate shaking at room temperature for one hour.
F. Remove lysate and wash 4 times with TBST. Transfer freshly diluted anti-Ptyr antibody to ELISA plate at 100 μl per well. Incubate shaking at room temperature for 30 minutes in the presence of the anti-Ptyr antiserum (1:3000 dilution in TBST).
G. Remove the anti-Ptyr antibody and wash 4 times with TBST. Transfer the freshly diluted TAGO anti-rabbit IgG antibody to the ELISA plate at 100 μl per well. […]

[2] = system: MCF7 human breast carcinoma cells; experiment: MCF-7 SRB growth assay; details: Table VI, 10% FBS, four days
Description: as §1
6. MCF-7 SRB Growth Assay
MCF-7 cells are seeded at 2000 cells/ well in a 96-well flat bottom plate in normal growth media, which was 10% FBS/RPMI supplemented with 2 mM Glutamine. The plate of cells is incubated for about 24 hours at 37° C. after which it receives an equal volume of compound dilution per well making the total volume per well 200 μl. The compound is prepared at 2 times the desired highest final concentration and serially diluted in the normal growth media in a 96-well round bottom plate and then transferred to plate of cells. DMSO serves as the vector control up to 0.2% as final concentration. The cells are then incubated at 37° C. in a humidified 5% CO2 incubator.
Four days following dosing of compound, the media is discarded and 200 μl/well of ice-cold 10% TCA (Trichloroacetic Acid) is added to fix cells. After 60 minutes at 4° C., the TCA is discarded and the plate is rinsed 5 times with water. The plate is then air-dried and 100 μl/well of 0.4% SRB (Sulforhodamine B from Sigma) in 1% Acetic Acid is added to stain cells for 10 minutes at room temperature. The SRB is discarded and the plate is rinsed 5 times with 1% Acetic Acid. After the plate is completely dried, 100 μl/well of 10 mM Tris-base is added to solubilize the dye. After 5 to 10 minutes, the plate is read on a Dynatech ELISA Plate Reader at dual wavelengths at 570 nm and 630 nm.

HER2 = biological target: T2, HER2 (Homo sapiens, UniProt P04626); experiment: HER2-BT474 whole cell kinase ELISA
T2 construct: the human mammary carcinoma line BT474 (ATCC HTB2) expressing HER2; endogenous in cells; host or cells: BT474 human mammary carcinoma cells
Experimental: HER2-BT474 assays measuring whole cell HER2 activity was carried out as described below:
All the following steps are at room temperature and aseptically, unless stated otherwise. All ELISA plate washing is by rinsing with distilled water three times and once with TBST.
Incubate the cells in 5% CO2 at 37° C. overnight.
2. ELISA Plate Coating and Blocking

[3] = Table V, read-out: Estimated IC50 Cellular Kinase Assays HER2 (BT474)
[4] = Table VI, cellular kinase assay, read-out: HER2-BT474

IC50 [1] [µM]	IC50 ([2]; Homo sapiens, MCF7, 96 h) [µM]	IC50 (HER2; [3])	IC50 (HER2; [4]) [µM]	fold greater inhibition of HER2 compared to EGF-R (HER2; as described in Example 1) [fold]	activity in cellular assays (HER2; cellular assays of the Examples, versus analogous compounds having bulkier R1 and R3 groups)	Compound	IC50 [2] [µM]
> 100	4	< 3 µM	3.1			CC(C)(C)c1cc(/C=C(\C#N)C(N)=S)cc(C(C)(C)C)c1O [Compound M11]	
> 100		14 µM	14	≥ 7		N#C/C(=C\c1ccc(O)c(O)c1)C(=S)NCc1ccccc1 [Compound M13]	
> 100	15	16 µM	16			N#C/C(=C\c1ccc(O)c(O)c1)C(=O)Nc1cccc(C(F)(F)F)c1 [Compound M15]	
		18 µM and 18.2 µM	26			N#C/C(=C\c1cc(O)c(O)c(I)c1)C(=O)NCCCc1ccccc1 [Compound M16]	
	6		3			CC(C)(C)c1cc(/C=C(\C#N)C(=O)NCCCc2ccccc2)cc(C(C)(C)C)c1O [Compound M20, (E)-3-(3,5-di-t-Butyl-4-hydroxyphenyl)-2-[(3-phenyl-n-propyl)aminocarbonyl]acrylonitrile]	
> 100	14		7.4			CC(C)c1cc(/C=C(\C#N)C(=O)NCCCc2ccccc2)cc(C(C)C)c1O [Compound M21, (E)-3-(3,5-Diisopropyl-4-hydroxyphenyl)-2-[(3-phenyl-n-propyl)aminocarbonyl]acrylonitrile]	
> 100	44		4.2			CC(C)c1cc(C=C(C#N)C(N)=C(C#N)C#N)cc(C(C)C)c1O [Compound M22, (E)-2-(1-Amino-2,2-dicyanoethenyl-3-(3,5-diisopropyl-4-hydroxyphenyl)acrylonitrile)]	
> 100	8		3.1			CC(C)c1cc(/C=C(\C#N)C(=S)NCCCc2ccccc2)cc(C(C)C)c1O [Compound M24, (E)-3-(3,5-Diisopropyl-4-hyrdroxyphenyl)-2-[(3-phenyl-n-propyl)aminothiocarbonyl]acrylonitrile]	
> 100			9.6			CC(C)c1cc(/C=C(\C#N)S(=O)(=O)c2ccccn2)cc(C(C)C)c1O [Compound M26]	
> 100	33		4.6			CC(C)c1cc(/C=C(\C#N)S(=O)(=O)CC#N)cc(C(C)C)c1O [Compound M27]	
> 100	12		1.4			CC(C)c1cc(/C=C(\C#N)S(=O)(=O)/C(C#N)=C/c2cc(C(C)C)c(O)c(C(C)C)c2)cc(C(C)C)c1O [Compound M29]	
18.3	9		0.65			CC(C)c1cc(/C=C(\C#N)S(=O)(=O)c2ccccc2)cc(C(C)C)c1O [Compound M30]	
> 100			5.4		less activity	Cc1cc(/C=C(\C#N)S(=O)(=O)c2ccccc2)cc(C)c1O [Compound M31]	
> 100			7.3			Cc1cc(/C=C(\C#N)S(=O)(=O)c2ccccn2)cc(C)c1O [Compound M32]	
> 100	1		0.17			CC(C)(C)c1cc(/C=C(\C#N)S(=O)(=O)c2ccccc2)cc(C(C)(C)C)c1O [Compound M33, (E)-3-(3,5-di-t-Butyl-4-hydroxyphenyl)-2-(phenylsulfonyl)acrylonitrile]	
> 100	2		0.11			CC(C)(C)c1cc(/C=C(\C#N)S(=O)(=O)c2ccccn2)cc(C(C)(C)C)c1O [Compound M34, (E)-3-(3,5-di-t-Butyl-4-hydroxyphenyl)-2-[(pyrid-2-yl)sulfonyl]acrylonitrile]	
> 100	0.3		0.29			CC(C)(C)c1cc(/C=C(\C#N)C(=O)Nc2ccc(C(F)(F)F)cc2)cc(C(C)(C)C)c1O [Compound M35, (E)-3-(3,5-di-t-Butyl-4-hydroxyphenyl)-2-[(4-trifluoromethyl)phenylaminocarbonyl]acrylonitrile]	
> 100	8		0.4			CC(C)(C)c1cc(/C=C(\C#N)S(=O)(=O)CC#N)cc(C(C)(C)C)c1O [Compound M36, (E)-3-(3,5-di-t-Butyl-4-hydroxyphenyl)-2-(cyanomethylsulfonyl)acrylonitrile]	

Compound	IC50 [1] [µM]	IC50 ([2]; Homo sapiens, MCF7, 96 h) [µM]	IC50 (HER2; [3])	IC50 (HER2; [4]) [µM]	fold greater inhibition of HER2 compared to EGF-R (HER2; as described in Example 1) [fold]	activity in cellular assays (HER2; cellular assays of the Examples, versus analogous compounds having bulkier R1 and R3 groups)	IC50 [2] [µM]
(E,E)-2-[[-Cyano-2-(3,5-diisopropyl-4-hydroxyphenyl)ethenyl]sulfonyl]-3-(3,5-di-t-butyl-4-hydroxyphenyl)acrylonitrile [Compound M37]	> 100			0.85			3
